type: biochemical; conditions: pH 7.5

| Compound | DON [ppm] |
| --- | --- |
| COS(=O)(=O)[O-].C[n+]1c2ccccc2nc2ccccc21 [PMS, phenazine methosulphate] | 1.95 |
| [Mn+2] [Mn^2+] | 2.57 |
| tryptophan tryptophylquinone [TTQ] | 2.32 |
| COC1=C(OC)C(=O)C(CC=C(C)C)=C(C)C1=O [coenzyme Q1] | 8.58 |
| [Ca+2] [Ca^2+] | 1.98 |
| [Mg+2] [Mg^2+] | 1.90 |
| N[C@@H](CCCCNC1=CC(=O)C(=O)C=C1C[C@H](N)C(=O)O)C(=O)O [LTQ, lysine tyrosylquinone] | 2.04 |
| CN(C)c1ccc2nc3ccc(=[N+](C)C)cc-3sc2c1 [methylene blue] | 6.88 |
| [Fe+2] [Fe^2+] | 2.17 |
| O=C(O)c1cc(C(=O)O)c2c(n1)C(=O)C(=O)c1cc(C(=O)O)[nH]c1-2 [PCC, pyrroloquinoline quinone] | 1.94 |
| [Zn+2] [Zn^2+] | 2.46 |
| [Cu+2] [Cu^2+] | 2.61 |
| topaquinone [TPQ] | 2.41 |

Reference: patent US10526585B2 (priority 2015, dated 2020)
